Drawing on patent US20250019385A1, “SPIROCYCLIC ANNULATED 2-AMINO-3-CYANO THIOPHENES AND DERIVATIVES FOR THE TREATMENT OF CANCER” (Boehringer Ingelheim International GmbH, priority 2023, published 2025), this text covers IC50, fraction unbound and solubility for five molecules.

Converted amounts (≈) assume the structure as drawn.

The target in one series is KRAS (G12D)::SOS1 protein-protein interaction (Homo sapiens (Human), UniProt P01116, G12D). The experiment in a line: KRAS::SOS1 AlphaScreen binding assay (KRAS G12D). Particulars: GDP. A digest of the protocol: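 AlphaScreen assay with KRAS G12D (1-169, 6His/avi-tagged, 10 nM), GST-SOS1 564-1049 (5 nM) and GDP (10 μM) in PBS, 0.1% BSA, 0.05% Tween 20; compound up to 100 μM top concentration, eleven fivefold dilutions in duplicate. After 30 min, glutathione acceptor and streptavidin donor beads (10 μg/mL each) were added and signal read after a further 60 min at room temperature in the dark; IC50 from 4-parameter logistic fit.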
Sequence of KRAS (G12D)::SOS1 protein-protein interaction (P01116 other isoform, or with tags, fused parts or gaps G12D): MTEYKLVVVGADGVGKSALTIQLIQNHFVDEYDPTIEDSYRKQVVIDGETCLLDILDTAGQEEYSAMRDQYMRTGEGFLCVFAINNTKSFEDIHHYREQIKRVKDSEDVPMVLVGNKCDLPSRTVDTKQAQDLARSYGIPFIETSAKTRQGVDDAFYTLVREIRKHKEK
What is called IC50 is the concentration needed to halve the response being measured. Read a low IC50 as greater potency. Molecule `C[C@H](Oc1nc(-c2onc3c2CCC[C@@]32CCCc3sc(N)c(C#N)c32)nc2c1n(C)c(=O)n2[C@@H]1CCOC1)[C@@H]1C[C@@H](F)CN1C` [I-22] returned an IC50 of 2 nM.

For the molecule `C[C@H](Oc1nc(-c2onc3c2CCC[C@@]32CCCc3sc(N)c(C#N)c32)nc2c1n(C)c(=O)n2[C@@H]1CCOC1)[C@@H]1[C@@H](F)CCN1C` [I-5], the IC50 was 2 nM.

Consider `CCn1c(=O)n([C@@H]2CCCOC2)c2nc(-c3onc4c3CCC[C@@]43CCCc4sc(N)c(C#N)c43)nc(OCC34CCCN3CCC4)c21` [I-34], for which the IC50 was determined as 22 nM.

On to `C[C@@H]1COC[C@H](n2c(=O)n(C)c3c(O[C@@H](C)[C@@H]4CCCN4C)nc(-c4onc5c4CCC[C@@]54CCCc5sc(N)c(C#N)c54)nc32)C1` [I-44], for which the IC50 came to 1 nM.

The molecule `C[C@H](Oc1nc(-c2onc3c2CCC[C@@]32CCCc3sc(N)c(C#N)c32)nc2c1n(C)c(=O)n2[C@@]12COC[C@@H]1C2)[C@@H]1CC[C@H](C)N1C` [I-45] registered an IC50 of 1 nM. In other words, the single-digit nanomolar range.

The next series concerns NCI-H358 cells. The experiment in a line: NCI-H358 CTG proliferation assay (120 h) (NSCLC, G12C). It is filed as cell-based. Particulars: Homo sapiens. The procedure: (§1) NCI-H358 cells (ATCC No. CRL-5807) are dispensed into black 384-well plates, flat and clear bottom (Greiner, PNr. 781091) at a density of 200 cells per well in 60 μl RPMI-1640 ATCC-Formulation (Gibco #A10491)+10% FCS (fetal calf serum). Cells are incubated overnight at 37° C. in a humidified tissue culture incubator at 5% CO2. Compounds (10 mM stock in DMSO) are added at logarithmic dose series using the ECHO acoustic liquid handler system (Beckman Coulter), normalizing for added DMSO and including DMSO controls. All compound treatments are performed in technical duplicates. For the TO time point measurement, untreated cells are analyzed at the time of compound addition. Plates are incubated for 120 h, and cell viability is measured using CellTiter-Glo luminescent cell viability reagent (Promega product code G7570). Viability (stated as percent of control) is defined as relative luminescence units RLU of each well divided by the RLU of cells in DMSO controls. IC50 values are determined from viability measurements by non-linear regression using a four-parameter model.
(§2) IC50 values of representative compounds according to the invention measured with these assays in the indicated cell lines are presented in Table 46.
`C[C@H](Oc1nc(-c2onc3c2CCC[C@@]32CCCc3sc(N)c(C#N)c32)nc2c1n(C)c(=O)n2[C@@H]1CCOC1)[C@@H]1C[C@@H](F)CN1C` [I-22] yielded an IC50 of 7 nM.

In turn, `C[C@H](Oc1nc(-c2onc3c2CCC[C@@]32CCCc3sc(N)c(C#N)c32)nc2c1n(C)c(=O)n2[C@@H]1CCOC1)[C@@H]1[C@@H](F)CCN1C` [I-5] registered an IC50 of 54 nM.

Turning to `CCn1c(=O)n([C@@H]2CCCOC2)c2nc(-c3onc4c3CCC[C@@]43CCCc4sc(N)c(C#N)c43)nc(OCC34CCCN3CCC4)c21` [I-34], the IC50 is 475 nM.

For the molecule `C[C@@H]1COC[C@H](n2c(=O)n(C)c3c(O[C@@H](C)[C@@H]4CCCN4C)nc(-c4onc5c4CCC[C@@]54CCCc5sc(N)c(C#N)c54)nc32)C1` [I-44], the IC50 came out at 7 nM. Compared with the last molecule, the IC50 is about 68-fold lower.

Regarding `C[C@H](Oc1nc(-c2onc3c2CCC[C@@]32CCCc3sc(N)c(C#N)c32)nc2c1n(C)c(=O)n2[C@@]12COC[C@@H]1C2)[C@@H]1CC[C@H](C)N1C` [I-45], half-maximal inhibition (IC50) required 5 nM.

Another series concerns LOVO cells. Briefly: LOVO CTG proliferation assay (120 h) (CRC, G13D). It is filed as cell-based. Particulars: Homo sapiens. The procedure: as §1, with “LOVO” for “NCI-H358”, “CCL-229)” for “CRL-5807)”, “1000” for “200”, “DMEM (Sigma D6429)+10%” for “RPMI-1640 ATCC-Formulation (Gibco #A10491)+10%”, “serum, HyClone, SH30084.03).” for “serum).”
as §2
In turn, `C[C@H](Oc1nc(-c2onc3c2CCC[C@@]32CCCc3sc(N)c(C#N)c32)nc2c1n(C)c(=O)n2[C@@H]1CCOC1)[C@@H]1C[C@@H](F)CN1C` [I-22] had an IC50 of 43 nM.

Take `C[C@H](Oc1nc(-c2onc3c2CCC[C@@]32CCCc3sc(N)c(C#N)c32)nc2c1n(C)c(=O)n2[C@@H]1CCOC1)[C@@H]1[C@@H](F)CCN1C` [I-5]: half-maximal inhibition (IC50) required 29 nM. This IC50 and that of the molecule before are within 1.5-fold of each other.

Take `CCn1c(=O)n([C@@H]2CCCOC2)c2nc(-c3onc4c3CCC[C@@]43CCCc4sc(N)c(C#N)c43)nc(OCC34CCCN3CCC4)c21` [I-34]: the IC50 was found to be 1340 nM.

In turn, `C[C@@H]1COC[C@H](n2c(=O)n(C)c3c(O[C@@H](C)[C@@H]4CCCN4C)nc(-c4onc5c4CCC[C@@]54CCCc5sc(N)c(C#N)c54)nc32)C1` [I-44] came in with a 50% inhibitory concentration (IC50) of 12 nM.

With `C[C@H](Oc1nc(-c2onc3c2CCC[C@@]32CCCc3sc(N)c(C#N)c32)nc2c1n(C)c(=O)n2[C@@]12COC[C@@H]1C2)[C@@H]1CC[C@H](C)N1C` [I-45], the IC50 stood at 9 nM.

System in another series: not listed separately
The experiment in a line: Plasma protein binding assay (PPB), equilibrium dialysis. It is filed as in vitro ADME. The settings on record: bovine, 10% FCS in PBS, read-out: PPB 10% FCS (% fu). The procedure: Binding of test compounds to plasma was determined using equilibrium dialysis (ED) and quantitative mass spectrometry interfaced with liquid chromatography (LC-MS). In brief, ED was performed with dialysis devices consisting of two chambers separated by a semipermeable membrane with a molecular weight cut-off of 5-10 kg/mol. One chamber was filled with 10% FCS in PBS containing 1-10 μmol/L test compound and the other chamber was filled with phosphate-buffer saline (PBS) with or without dextran. The dialysis chamber was incubated for 3-5 hours at 37° C. After incubation, protein was precipitated from aliquots of each chamber and the concentration of test compound in the supernatant of the plasma-containing compartment (cserum) and of the buffer-containing compartment (cbuffer) was determined by LC-MS. The fraction of unbound test compound (not bound to plasma) (f) was calculated according to the following equation: […]
Background: In equilibrium dialysis only unbound substance equilibrates across the membrane.
As for `C[C@H](Oc1nc(-c2onc3c2CCC[C@@]32CCCc3sc(N)c(C#N)c32)nc2c1n(C)c(=O)n2[C@@H]1CCOC1)[C@@H]1C[C@@H](F)CN1C` [I-22], the fraction unbound was 0.19.

For the molecule `C[C@H](Oc1nc(-c2onc3c2CCC[C@@]32CCCc3sc(N)c(C#N)c32)nc2c1n(C)c(=O)n2[C@@H]1CCOC1)[C@@H]1[C@@H](F)CCN1C` [I-5], the fraction unbound worked out at 0.03.

On to `CCn1c(=O)n([C@@H]2CCCOC2)c2nc(-c3onc4c3CCC[C@@]43CCCc4sc(N)c(C#N)c43)nc(OCC34CCCN3CCC4)c21` [I-34], for which the fraction unbound stood at 0.07.

For the molecule `C[C@@H]1COC[C@H](n2c(=O)n(C)c3c(O[C@@H](C)[C@@H]4CCCN4C)nc(-c4onc5c4CCC[C@@]54CCCc5sc(N)c(C#N)c54)nc32)C1` [I-44], the fraction unbound was found to be 0.1.

On to `C[C@H](Oc1nc(-c2onc3c2CCC[C@@]32CCCc3sc(N)c(C#N)c32)nc2c1n(C)c(=O)n2[C@@]12COC[C@@H]1C2)[C@@H]1CC[C@H](C)N1C` [I-45], for which the fraction unbound was found to be 0.2.

System in a further series: not listed separately
The experiment in a line: Solubility measurement (DMSO solution precipitation method). It is filed as physicochemical. Particulars: aqueous buffer, kinetic from dmso stock, McIlvaine buffer pH 4.5, 24 h, read-out: solubility pH 4.5. A digest of the protocol: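 A 10 mM DMSO stock was diluted to 250 μM final in McIlvaine buffer at pH 4.5 or 6.8, then shaken 24 h at ambient temperature. After filtering off precipitate, filtrate concentration was quantified by LC-UV against a fully dissolved reference in acetonitrile/water (1:1).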
By solubility is commonly meant the dissolved amount per volume that the medium holds. Regarding `C[C@H](Oc1nc(-c2onc3c2CCC[C@@]32CCCc3sc(N)c(C#N)c32)nc2c1n(C)c(=O)n2[C@@H]1CCOC1)[C@@H]1C[C@@H](F)CN1C` [I-22], the solubility at 24 h was more than 154 µg/mL.

Consider `C[C@H](Oc1nc(-c2onc3c2CCC[C@@]32CCCc3sc(N)c(C#N)c32)nc2c1n(C)c(=O)n2[C@@H]1CCOC1)[C@@H]1[C@@H](F)CCN1C` [I-5], for which the solubility at 24 h is more than 150 µg/mL.

Turning to `CCn1c(=O)n([C@@H]2CCCOC2)c2nc(-c3onc4c3CCC[C@@]43CCCc4sc(N)c(C#N)c43)nc(OCC34CCCN3CCC4)c21` [I-34], the solubility at 24 h is more than 158 µg/mL.

Consider `C[C@@H]1COC[C@H](n2c(=O)n(C)c3c(O[C@@H](C)[C@@H]4CCCN4C)nc(-c4onc5c4CCC[C@@]54CCCc5sc(N)c(C#N)c54)nc32)C1` [I-44], for which the solubility at 24 h is more than 157 µg/mL.

Turning to `C[C@H](Oc1nc(-c2onc3c2CCC[C@@]32CCCc3sc(N)c(C#N)c32)nc2c1n(C)c(=O)n2[C@@]12COC[C@@H]1C2)[C@@H]1CC[C@H](C)N1C` [I-45], the solubility at 24 h was more than 135 µg/mL.

Still in this series, the particulars now being: aqueous buffer, kinetic from dmso stock, McIlvaine buffer pH 6.8, 24 h, read-out: solubility pH 6.8.
As for `C[C@H](Oc1nc(-c2onc3c2CCC[C@@]32CCCc3sc(N)c(C#N)c32)nc2c1n(C)c(=O)n2[C@@H]1CCOC1)[C@@H]1C[C@@H](F)CN1C` [I-22], the solubility at 24 h turned out to be 12 µg/mL (≈ 18.5 µM).

Regarding `C[C@H](Oc1nc(-c2onc3c2CCC[C@@]32CCCc3sc(N)c(C#N)c32)nc2c1n(C)c(=O)n2[C@@H]1CCOC1)[C@@H]1[C@@H](F)CCN1C` [I-5], the solubility at 24 h is 2 µg/mL (≈ 3.08 µM).

Take `CCn1c(=O)n([C@@H]2CCCOC2)c2nc(-c3onc4c3CCC[C@@]43CCCc4sc(N)c(C#N)c43)nc(OCC34CCCN3CCC4)c21` [I-34]: the solubility at 24 h was more than 148 µg/mL.

`C[C@@H]1COC[C@H](n2c(=O)n(C)c3c(O[C@@H](C)[C@@H]4CCCN4C)nc(-c4onc5c4CCC[C@@]54CCCc5sc(N)c(C#N)c54)nc32)C1` [I-44]: the solubility at 24 h is 2 µg/mL (≈ 3.04 µM).

As to `C[C@H](Oc1nc(-c2onc3c2CCC[C@@]32CCCc3sc(N)c(C#N)c32)nc2c1n(C)c(=O)n2[C@@]12COC[C@@H]1C2)[C@@H]1CC[C@H](C)N1C` [I-45], the solubility at 24 h was found to be 85 µg/mL (≈ 129 µM).
